Test results reported in ChEMBL document CHEMBL5058649, “Data for DCP probe BAY 1816032” (2022).

Tests used:
[1] = biological target: T1, 5-hydroxytryptamine receptor 1D (Homo sapiens, UniProt P28221); experiment: GPCRScan assay: inhibition of 5-HT1D; parameters: radioligand conc. used [nm] 1.0 – 2.0, parental cells HEKT
[2] = biological target: 5-hydroxytryptamine receptor 6 (Homo sapiens, UniProt P50406); experiment: GPCRScan assay: inhibition of 5-HT6; parameters: radioligand conc. used [nm] 2.0 – 4.0, parental cells stable HEK
[3] = biological target: T2, Sodium-dependent noradrenaline transporter (Homo sapiens, UniProt P23975); experiment: GPCRScan assay: inhibition of NET; parameters: radioligand conc. used [nm] 1.3 – 5.0, parental cells stable HEK
[4] = biological target: T3, Sodium-dependent dopamine transporter (Homo sapiens, UniProt Q01959); experiment: GPCRScan assay: inhibition of DAT; parameters: radioligand conc. used [nm] 3.6 – 16.0, parental cells stable HEK
[5] = biological target: T4, Sigma intracellular receptor 2 (Homo sapiens, UniProt Q5BJF2); experiment: GPCRScan assay: inhibition of Sigma 2; parameters: radioligand conc. used [nm] 5.0, parental cells HEKT
[6] = biological target: T5, Sigma non-opioid intracellular receptor 1 (Homo sapiens, UniProt Q99720); experiment: GPCRScan assay: inhibition of Sigma 1; parameters: radioligand conc. used [nm] 4.0 – 5.0, parental cells HEKT
[7] = biological target: T6, Mitotic checkpoint serine/threonine-protein kinase BUB1 (Homo sapiens, UniProt O43683); experiment: BUB1 biochemical assay (low ATP)
[8] = biological target: T6, Mitotic checkpoint serine/threonine-protein kinase BUB1; experiment: BUB1 biochemical assay (high ATP)
[9] = biological target: 5-hydroxytryptamine receptor 1A (Homo sapiens) (UniProt P08908); details: Compound concentration 10.0 uM
[10] = biological target: 5-hydroxytryptamine receptor 1B (Homo sapiens) (UniProt P28222); details: Compound concentration 10.0 uM
[11] = biological target: T1, 5-hydroxytryptamine receptor 1D; details: Compound concentration 10.0 uM
[12] = biological target: 5-hydroxytryptamine receptor 1E (Homo sapiens) (UniProt P28566); details: Compound concentration 10.0 uM
[13] = biological target: 5-hydroxytryptamine receptor 2A (Homo sapiens) (UniProt P28223); details: Compound concentration 10.0 uM
[14] = biological target: 5-hydroxytryptamine receptor 2B (Homo sapiens) (UniProt P41595); details: Compound concentration 10.0 uM
[15] = biological target: 5-hydroxytryptamine receptor 3A (Homo sapiens) (UniProt P46098); details: Compound concentration 10.0 uM
[16] = biological target: 5-hydroxytryptamine receptor 5A (Homo sapiens) (UniProt P47898); details: Compound concentration 10.0 uM
[17] = biological target: 5-hydroxytryptamine receptor 7 (Homo sapiens, UniProt P34969); details: Compound concentration 10.0 uM
[18] = biological target: D(1A) dopamine receptor (Homo sapiens) (UniProt P21728); details: Compound concentration 10.0 uM
[19] = biological target: D(2) dopamine receptor (Homo sapiens) (UniProt P14416); details: Compound concentration 10.0 uM
[20] = biological target: D(3) dopamine receptor (Homo sapiens) (UniProt P35462); details: Compound concentration 10.0 uM
[21] = biological target: D(4) dopamine receptor (Homo sapiens) (UniProt P21917); details: Compound concentration 10.0 uM
[22] = biological target: D(1B) dopamine receptor (Homo sapiens) (UniProt P21918); details: Compound concentration 10.0 uM
[23] = biological target: Sodium-dependent serotonin transporter (Homo sapiens) (UniProt P31645); details: Compound concentration 10.0 uM
[24] = biological target: T2, Sodium-dependent noradrenaline transporter; details: Compound concentration 10.0 uM
[25] = biological target: T3, Sodium-dependent dopamine transporter; details: Compound concentration 10.0 uM
[26] = biological target: Mu-type opioid receptor (Homo sapiens) (UniProt P35372); details: Compound concentration 10.0 uM
[27] = biological target: Delta-type opioid receptor (Homo sapiens) (UniProt P41143); details: Compound concentration 10.0 uM
[28] = biological target: Kappa-type opioid receptor (Homo sapiens) (UniProt P41145); details: Compound concentration 10.0 uM
[29] = biological target: Histamine H1 receptor (Homo sapiens) (UniProt P35367); details: Compound concentration 10.0 uM
[30] = biological target: Histamine H2 receptor (Homo sapiens) (UniProt P25021); details: Compound concentration 10.0 uM
[31] = biological target: Histamine H4 receptor (Homo sapiens) (UniProt Q9H3N8); details: Compound concentration 10.0 uM
[32] = biological target: Alpha-1A adrenergic receptor (Homo sapiens) (UniProt P35348); details: Compound concentration 10.0 uM
[33] = biological target: Alpha-1B adrenergic receptor (Homo sapiens) (UniProt P35368); details: Compound concentration 10.0 uM
[34] = biological target: T7, Alpha-2A adrenergic receptor (Homo sapiens) (UniProt P08913); details: Compound concentration 10.0 uM
T7 sequence (whole entry): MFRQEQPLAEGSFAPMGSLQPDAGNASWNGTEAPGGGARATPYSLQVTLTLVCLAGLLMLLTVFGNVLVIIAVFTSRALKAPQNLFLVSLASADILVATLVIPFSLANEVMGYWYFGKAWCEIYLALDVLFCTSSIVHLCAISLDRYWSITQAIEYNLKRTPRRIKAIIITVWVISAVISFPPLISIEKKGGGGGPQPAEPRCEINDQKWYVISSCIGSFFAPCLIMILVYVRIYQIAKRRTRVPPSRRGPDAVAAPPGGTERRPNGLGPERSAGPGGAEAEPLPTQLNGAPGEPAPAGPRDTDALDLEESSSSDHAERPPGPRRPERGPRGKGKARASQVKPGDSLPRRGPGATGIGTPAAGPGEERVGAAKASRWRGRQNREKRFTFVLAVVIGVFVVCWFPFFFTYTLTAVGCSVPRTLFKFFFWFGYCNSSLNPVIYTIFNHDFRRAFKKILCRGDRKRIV

[35] = biological target: Alpha-2B adrenergic receptor (Homo sapiens) (UniProt P18089); details: Compound concentration 10.0 uM
[36] = biological target: Alpha-2C adrenergic receptor (Homo sapiens) (UniProt P18825); details: Compound concentration 10.0 uM
[37] = biological target: Beta-1 adrenergic receptor (Homo sapiens) (UniProt P08588); details: Compound concentration 10.0 uM
[38] = biological target: Muscarinic acetylcholine receptor M4 (Homo sapiens) (UniProt P08173); details: Compound concentration 10.0 uM
[39] = biological target: Beta-3 adrenergic receptor (Homo sapiens) (UniProt P13945); details: Compound concentration 10.0 uM
Rattus norvegicus = organism: Rattus norvegicus; details: Compound concentration 10.0 uM
[40] = biological target: Alpha-1D adrenergic receptor (Homo sapiens) (UniProt P25100); details: Compound concentration 10.0 uM
[41] = biological target: T4, Sigma intracellular receptor 2; details: Compound concentration 10.0 uM
[42] = biological target: T5, Sigma non-opioid intracellular receptor 1; details: Compound concentration 10.0 uM

T3 sequence (Q01959 whole entry): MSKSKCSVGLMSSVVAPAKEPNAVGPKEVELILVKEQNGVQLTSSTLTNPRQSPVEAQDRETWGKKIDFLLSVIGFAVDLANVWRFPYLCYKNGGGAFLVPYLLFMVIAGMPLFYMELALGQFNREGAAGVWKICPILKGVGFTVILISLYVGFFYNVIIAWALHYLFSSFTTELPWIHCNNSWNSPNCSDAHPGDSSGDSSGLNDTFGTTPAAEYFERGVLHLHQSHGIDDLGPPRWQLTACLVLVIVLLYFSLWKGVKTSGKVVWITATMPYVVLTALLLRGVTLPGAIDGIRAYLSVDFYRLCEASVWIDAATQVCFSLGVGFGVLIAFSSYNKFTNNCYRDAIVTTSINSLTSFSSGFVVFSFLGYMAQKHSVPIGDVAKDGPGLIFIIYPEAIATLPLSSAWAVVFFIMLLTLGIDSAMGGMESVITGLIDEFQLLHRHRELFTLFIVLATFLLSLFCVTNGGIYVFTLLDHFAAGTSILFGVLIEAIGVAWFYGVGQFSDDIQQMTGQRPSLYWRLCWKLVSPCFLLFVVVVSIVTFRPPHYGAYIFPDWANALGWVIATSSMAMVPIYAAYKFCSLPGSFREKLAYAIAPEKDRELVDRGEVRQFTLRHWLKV
T4 sequence (Q5BJF2 whole entry): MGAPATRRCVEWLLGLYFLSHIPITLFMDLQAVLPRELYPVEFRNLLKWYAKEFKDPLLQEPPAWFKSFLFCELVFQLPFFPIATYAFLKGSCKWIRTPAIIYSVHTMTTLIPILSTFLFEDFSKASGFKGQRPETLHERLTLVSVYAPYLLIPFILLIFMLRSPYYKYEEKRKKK
T1 sequence (P28221 whole entry): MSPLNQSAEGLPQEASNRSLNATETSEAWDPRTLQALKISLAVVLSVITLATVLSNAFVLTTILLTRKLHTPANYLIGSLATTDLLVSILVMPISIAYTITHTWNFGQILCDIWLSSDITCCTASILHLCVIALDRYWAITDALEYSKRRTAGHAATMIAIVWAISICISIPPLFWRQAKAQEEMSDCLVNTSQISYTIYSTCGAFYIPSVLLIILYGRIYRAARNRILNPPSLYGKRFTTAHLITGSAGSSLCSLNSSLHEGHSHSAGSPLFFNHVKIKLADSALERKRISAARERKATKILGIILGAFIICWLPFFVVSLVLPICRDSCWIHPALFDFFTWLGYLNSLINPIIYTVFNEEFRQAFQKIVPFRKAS
T5 sequence (Q99720 whole entry): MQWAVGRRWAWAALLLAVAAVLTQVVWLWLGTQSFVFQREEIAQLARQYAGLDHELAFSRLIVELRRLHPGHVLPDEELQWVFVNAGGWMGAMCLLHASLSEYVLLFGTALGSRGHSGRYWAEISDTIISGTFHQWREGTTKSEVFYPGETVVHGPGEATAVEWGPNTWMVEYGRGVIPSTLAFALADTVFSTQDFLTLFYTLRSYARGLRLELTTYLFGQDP
T6 sequence (O43683 whole entry): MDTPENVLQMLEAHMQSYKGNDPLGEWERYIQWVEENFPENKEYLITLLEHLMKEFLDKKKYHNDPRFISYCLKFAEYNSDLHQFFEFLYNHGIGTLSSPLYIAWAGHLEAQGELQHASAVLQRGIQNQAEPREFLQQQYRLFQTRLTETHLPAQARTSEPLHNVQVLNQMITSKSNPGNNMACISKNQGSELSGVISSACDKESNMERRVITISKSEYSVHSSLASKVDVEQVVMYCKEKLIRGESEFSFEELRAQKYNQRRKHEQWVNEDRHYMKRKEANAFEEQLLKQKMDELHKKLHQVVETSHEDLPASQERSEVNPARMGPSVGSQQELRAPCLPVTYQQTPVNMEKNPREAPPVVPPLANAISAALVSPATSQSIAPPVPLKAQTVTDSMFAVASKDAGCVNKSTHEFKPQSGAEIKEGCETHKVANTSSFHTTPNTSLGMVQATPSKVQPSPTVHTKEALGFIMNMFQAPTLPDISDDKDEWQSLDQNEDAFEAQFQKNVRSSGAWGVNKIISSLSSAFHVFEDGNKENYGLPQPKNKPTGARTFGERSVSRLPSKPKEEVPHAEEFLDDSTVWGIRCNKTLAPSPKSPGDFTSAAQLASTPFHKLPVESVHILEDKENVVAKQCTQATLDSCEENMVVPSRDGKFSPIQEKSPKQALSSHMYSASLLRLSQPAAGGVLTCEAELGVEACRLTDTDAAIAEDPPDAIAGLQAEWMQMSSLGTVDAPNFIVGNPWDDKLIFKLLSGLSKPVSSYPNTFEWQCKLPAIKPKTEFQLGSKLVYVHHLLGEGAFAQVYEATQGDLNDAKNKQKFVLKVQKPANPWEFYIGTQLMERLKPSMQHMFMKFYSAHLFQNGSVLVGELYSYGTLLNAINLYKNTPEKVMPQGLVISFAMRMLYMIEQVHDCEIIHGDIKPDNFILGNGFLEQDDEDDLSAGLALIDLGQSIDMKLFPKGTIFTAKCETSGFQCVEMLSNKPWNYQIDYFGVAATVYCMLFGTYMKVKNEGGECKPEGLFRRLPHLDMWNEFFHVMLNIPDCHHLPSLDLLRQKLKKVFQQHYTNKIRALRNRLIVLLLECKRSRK
Sequence of 5-hydroxytryptamine receptor 6 (P50406 whole entry): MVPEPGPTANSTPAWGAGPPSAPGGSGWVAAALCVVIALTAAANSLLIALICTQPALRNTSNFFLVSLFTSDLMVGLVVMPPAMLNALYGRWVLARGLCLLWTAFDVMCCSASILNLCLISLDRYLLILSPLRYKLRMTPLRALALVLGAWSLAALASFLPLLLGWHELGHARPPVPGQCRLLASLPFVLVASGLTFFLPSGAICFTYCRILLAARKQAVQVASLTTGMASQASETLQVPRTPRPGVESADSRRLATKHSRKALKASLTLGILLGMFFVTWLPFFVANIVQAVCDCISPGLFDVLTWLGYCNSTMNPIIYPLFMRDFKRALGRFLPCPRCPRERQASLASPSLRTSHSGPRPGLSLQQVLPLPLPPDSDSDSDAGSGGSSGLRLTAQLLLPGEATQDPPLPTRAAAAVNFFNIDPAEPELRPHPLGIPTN
T2 sequence (P23975 whole entry): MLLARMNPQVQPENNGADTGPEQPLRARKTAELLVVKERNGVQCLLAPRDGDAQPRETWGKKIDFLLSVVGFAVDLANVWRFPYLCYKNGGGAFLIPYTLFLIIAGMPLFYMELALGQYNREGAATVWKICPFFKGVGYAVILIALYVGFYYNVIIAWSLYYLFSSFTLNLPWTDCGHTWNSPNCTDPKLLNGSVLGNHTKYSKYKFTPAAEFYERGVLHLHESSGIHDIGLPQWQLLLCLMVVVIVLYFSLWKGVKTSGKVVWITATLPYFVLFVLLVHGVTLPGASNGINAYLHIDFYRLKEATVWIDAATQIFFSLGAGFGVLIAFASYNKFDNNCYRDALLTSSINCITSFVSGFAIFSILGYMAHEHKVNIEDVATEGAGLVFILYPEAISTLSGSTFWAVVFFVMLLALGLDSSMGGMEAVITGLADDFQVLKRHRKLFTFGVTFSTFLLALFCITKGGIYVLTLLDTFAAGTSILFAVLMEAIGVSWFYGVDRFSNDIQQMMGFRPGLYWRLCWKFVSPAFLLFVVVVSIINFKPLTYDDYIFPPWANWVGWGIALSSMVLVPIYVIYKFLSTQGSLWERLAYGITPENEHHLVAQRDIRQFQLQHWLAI
Sequence of 5-hydroxytryptamine receptor 1B (Homo sapiens) (P28222 whole entry): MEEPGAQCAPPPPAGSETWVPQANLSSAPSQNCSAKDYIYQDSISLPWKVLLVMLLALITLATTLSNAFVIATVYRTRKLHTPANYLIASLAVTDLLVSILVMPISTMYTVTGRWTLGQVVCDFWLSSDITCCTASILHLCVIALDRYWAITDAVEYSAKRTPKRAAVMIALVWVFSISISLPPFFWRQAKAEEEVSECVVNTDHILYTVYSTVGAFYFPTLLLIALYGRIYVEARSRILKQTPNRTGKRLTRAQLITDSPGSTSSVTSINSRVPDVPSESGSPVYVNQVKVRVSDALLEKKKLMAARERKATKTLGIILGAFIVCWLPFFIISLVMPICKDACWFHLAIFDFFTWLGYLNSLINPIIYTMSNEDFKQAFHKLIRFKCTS
Sequence of 5-hydroxytryptamine receptor 1E (Homo sapiens) (P28566 whole entry): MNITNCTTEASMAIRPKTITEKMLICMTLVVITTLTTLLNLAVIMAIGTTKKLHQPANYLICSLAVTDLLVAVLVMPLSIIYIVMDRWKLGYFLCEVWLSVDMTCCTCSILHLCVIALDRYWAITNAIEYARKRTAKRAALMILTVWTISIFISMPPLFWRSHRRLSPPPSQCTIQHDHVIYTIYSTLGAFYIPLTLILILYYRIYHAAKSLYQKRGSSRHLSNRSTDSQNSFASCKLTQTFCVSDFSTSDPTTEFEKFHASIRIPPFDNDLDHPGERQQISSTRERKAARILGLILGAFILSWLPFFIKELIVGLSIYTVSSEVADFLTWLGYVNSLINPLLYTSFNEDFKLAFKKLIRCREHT
Sequence of 5-hydroxytryptamine receptor 3A (Homo sapiens) (P46098 whole entry): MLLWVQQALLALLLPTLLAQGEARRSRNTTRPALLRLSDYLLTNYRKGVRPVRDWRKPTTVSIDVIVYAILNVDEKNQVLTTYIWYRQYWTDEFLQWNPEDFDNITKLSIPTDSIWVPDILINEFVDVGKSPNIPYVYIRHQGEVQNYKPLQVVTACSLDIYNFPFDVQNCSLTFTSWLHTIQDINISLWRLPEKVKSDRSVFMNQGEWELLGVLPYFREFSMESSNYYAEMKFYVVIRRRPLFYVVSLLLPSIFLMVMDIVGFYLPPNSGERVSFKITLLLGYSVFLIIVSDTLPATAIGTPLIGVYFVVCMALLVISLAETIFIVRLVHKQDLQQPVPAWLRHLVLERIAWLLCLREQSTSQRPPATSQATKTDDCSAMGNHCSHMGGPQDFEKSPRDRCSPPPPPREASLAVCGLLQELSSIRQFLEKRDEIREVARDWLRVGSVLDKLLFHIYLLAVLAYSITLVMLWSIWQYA

In the case of COc1ccccc1Nc1nc(-c2nn(Cc3c(F)cc(OCCCO)cc3F)c3ccccc23)ncc1OC, the Ki [1] is reported as 8970 nM, the Ki [2] is reported as > 10000 nM and the pKi [2] is reported as < 5. For the same compound, the Ki [3] was 2740 nM, the Ki ([4]; read-out: Ki) was 1630 nM and the Ki ([4]; read-out: pKi (converted)) was 1620 nM. The Ki [5] was 655 nM, the Ki [6] was 1340 nM and the IC50 [7] was 1700 nM (not active). For the same compound, the IC50 [8] was > 20000 nM (not active), the inhibition [9] was 12.3% and the inhibition [10] was 33.8%. The inhibition [11] was 55.1%, the inhibition [12] was -3.71% and the inhibition [13] was 6.5%. It also gave an inhibition [14] of -3.83%, an inhibition [15] of -3.97% and an inhibition [16] of 3.77%. For the same compound, the inhibition [17] was -3.39%, the inhibition [18] was 41.3% and the inhibition [19] was 21.8%. For the same compound, the inhibition [20] was 20%, the inhibition [21] was 24.9% and the inhibition [22] was 26.8%. The inhibition [23] was 10.9%, the inhibition [24] was 58.7% and the inhibition [25] was 82.8%. The inhibition [26] was -9.7%, the inhibition [27] was -9.55% and the inhibition [28] was 17.5%. For the same compound, the inhibition [29] was 20.3%, the inhibition [30] was 28.7% and the inhibition [31] was 27.8%. It also gave an inhibition [32] of -6.1%, an inhibition [33] of -4.46% and an inhibition [34] of 28.9%. The inhibition [35] was 27.6%, the inhibition [36] was 12.9% and the inhibition [37] was 1.17%. The inhibition [38] was 9.26%, the inhibition [39] was 33.6% and the inhibition (Rattus norvegicus) was 13.9%. The inhibition [40] was 12.9%, the inhibition [41] was 69.2% and the inhibition [42] was 52.2%.
